Among the data in PubChem BioAssay AID330 (DTP/NCI, 2004) are T/C values, retold here.

“And” between values parts separate entries of the source, which are not always exact repeats. Equal entries are not always repeated. Inconclusive results and toxic doses are left out.

For this assay, the system named is P388 leukemia ip, CD2F1 mice, survival T/C. The assay is described as follows: NCI In Vivo Anticancer Drug Screen. Data for tumor model P388 Leukemia (intraperitoneal) in CD2F1 (CDF1) mice. To be noted: endpoint: median survival time, higher = longer survival. The procedure, abridged: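 Mice carrying the transplanted tumor received test compound or vehicle. Survival was recorded in each group, and the value is the treated-group measurement divided by that of the vehicle-treated control group.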

Setting [1] is: dose: 50.0 mg/kg/injection, schedule: Q01DX009 (ip), vehicle: saline with Tween-80.
[2] abbreviates: dose: 100.0 mg/kg/injection, schedule: Q01DX009 (ip), vehicle: saline with Tween-80.
Setting [3] is: dose: 200.0 mg/kg/injection, schedule: Q01DX009 (ip), vehicle: saline with Tween-80.
Where [4] appears, read: dose: 60.0 mg/kg/injection, schedule: Q01DX005 (ip), vehicle: saline with Tween-80.
Setting [5] is: dose: 120.0 mg/kg/injection, schedule: Q01DX005 (ip), vehicle: saline with Tween-80.
Setting [6] is: dose: 240.0 mg/kg/injection, schedule: Q01DX005 (ip), vehicle: saline with Tween-80.
Setting [7] is: dose: 12.5 mg/kg/injection, schedule: Q01DX009 (ip), vehicle: other.
The mark [8] stands for this setting: dose: 25.0 mg/kg/injection, schedule: Q01DX009 (ip), vehicle: other.
The mark [9] stands for this setting: dose: 100.0 mg/kg/injection, schedule: Q01DX001 (ip), vehicle: saline with Tween-80.
Where [10] appears, read: dose: 200.0 mg/kg/injection, schedule: Q01DX001 (ip), vehicle: saline with Tween-80.
[11] abbreviates: dose: 400.0 mg/kg/injection, schedule: Q01DX009 (ip), vehicle: saline with Tween-80.
Where [12] appears, read: dose: 50.0 mg/kg/injection, schedule: Q01DX009 (ip), vehicle: Klucel (hydroxypropylcellulose) (HPC).
The mark [13] stands for this setting: dose: 100.0 mg/kg/injection, schedule: Q01DX009 (ip), vehicle: Klucel (hydroxypropylcellulose) (HPC).
Where [14] appears, read: dose: 200.0 mg/kg/injection, schedule: Q01DX009 (ip), vehicle: Klucel (hydroxypropylcellulose) (HPC).
Where [15] appears, read: dose: 60.0 mg/kg/injection, schedule: Q01DX005 (ip), vehicle: Klucel (hydroxypropylcellulose) (HPC).
Setting [16] is: dose: 120.0 mg/kg/injection, schedule: Q01DX005 (ip), vehicle: Klucel (hydroxypropylcellulose) (HPC).
Where [17] appears, read: dose: 240.0 mg/kg/injection, schedule: Q01DX005 (ip), vehicle: Klucel (hydroxypropylcellulose) (HPC).
[18] abbreviates: dose: 50.0 mg/kg/injection, schedule: Q01DX005 (ip), vehicle: Klucel (hydroxypropylcellulose) (HPC).
[19] abbreviates: dose: 100.0 mg/kg/injection, schedule: Q01DX005 (ip), vehicle: Klucel (hydroxypropylcellulose) (HPC).
Setting [20] is: dose: 50.0 mg/kg/injection, schedule: Q01DX005 (ip), vehicle: saline with Tween-80.
Setting [21] is: dose: 100.0 mg/kg/injection, schedule: Q01DX005 (ip), vehicle: saline with Tween-80.

As to `CCCCc1ccc(Nc2c(C(=O)O)cnc3cc4c(cc23)OCO4)cc1`, the T/C by setting is: (dose: 60.0 mg/kg/injection, schedule: Q01DX005 (ip), vehicle: Klucel + Tween-80) 103 % of control; (dose: 120.0 mg/kg/injection, schedule: Q01DX005 (ip), vehicle: Klucel + Tween-80) 100 % of control; (dose: 240.0 mg/kg/injection, schedule: Q01DX005 (ip), vehicle: Klucel + Tween-80) 97 % of control.
Take `COC1(OC)C2C=CC1CC2`: the T/C was 107 % of control and 116 % of control under setting [1]; 101 % of control under setting [2]; 109 % of control under setting [3].
As to `C=C1C(=O)SC(=NCc2ccccc2)N1C`, the T/C reads like this: under setting [4], 96 % of control; under setting [5], 90 % of control; under setting [6], 91 % of control.
For `CNC(=O)OCc1c(COC(=O)NC)c2n(c1C)CCc1ccccc1-2`, the T/C (dose: 12.5 mg/kg/injection, schedule: Q01DX009 (ip), vehicle: distilled water + Tween-80) was 153 % of control.
As to `CC1CCCCC1=C(C#N)C#N` (stereo not drawn), the T/C runs as follows: under setting [7], 95 % of control; under setting [8], 100 % of control.
Consider `O=[N+]([O-])c1ccc(-c2cnc3nc4[nH]c5ccccc5c4nn23)cc1`, for which the T/C reads like this: under setting [9], 101 % of control; under setting [10], 92 % of control; (dose: 400.0 mg/kg/injection, schedule: Q01DX001 (ip), vehicle: saline with Tween-80) 87 % of control.
As to `O=C1c2ccccc2C(=O)N1CNc1cccc(NCN2C(=O)c3ccccc3C2=O)c1`, the T/C is 110 % of control under setting [2], 95 % of control under setting [3] and 100 % of control under setting [11].
As for `CC1Cn2c(c(-c3ccccc3)c(=O)[nH]c2=S)O1` (stereo not drawn), the T/C under setting [1] was 100 % of control, the T/C under setting [2] was 98 % of control and the T/C under setting [3] is 91 % of control.
Turning to `CCO/C([O-])=C(\C=N\S(=O)(=O)c1ccc(C)cc1)[n+]1ccccc1`, the T/C under setting [12] is 104 % of control, the T/C under setting [13] is 105 % of control and the T/C under setting [14] is 108 % of control.
As for `CCOC(=O)C(CCC[n+]1cc2ccccc2c2ccccc21)C(=O)OCC`, the T/C (dose: 50.0 mg/kg/injection, schedule: Q01DX005 (ip), vehicle: saline) was 106 % of control; the T/C (dose: 100.0 mg/kg/injection, schedule: Q01DX005 (ip), vehicle: saline) is 101 % of control; the T/C (dose: 200.0 mg/kg/injection, schedule: Q01DX005 (ip), vehicle: saline) was 101 % of control.
`OC[C@@H]1CCCN2CCCC[C@H]12`: the T/C reads like this: (dose: 6.2 mg/kg/injection, schedule: Q01DX007 (ip), vehicle: carboxymethylcellulose (CMC)) 91 % of control; (dose: 12.5 mg/kg/injection, schedule: Q01DX007 (ip), vehicle: carboxymethylcellulose (CMC)) 91 % of control; (dose: 25.0 mg/kg/injection, schedule: Q01DX007 (ip), vehicle: carboxymethylcellulose (CMC)) 91 % of control.
As to `CN(C)c1ccc(C=C2C(=O)N(c3ccccc3)C(=S)N(c3ccccc3)C2=O)cc1`, the T/C by setting is: under setting [15], 90 % of control; under setting [16], 92 % of control; under setting [17], 92 % of control.
Consider `Nc1ncnc2c1ncn2C1SC(CO)C(O)C1O` (stereo not drawn), for which the T/C (dose: 12.5 mg/kg/injection, schedule: Q01DX005 (ip), vehicle: Klucel (hydroxypropylcellulose) (HPC)) is 92 % of control; the T/C (dose: 25.0 mg/kg/injection, schedule: Q01DX005 (ip), vehicle: Klucel (hydroxypropylcellulose) (HPC)) is 100 % of control and 92 % of control; the T/C under setting [18] was 99 % of control and 96 % of control; the T/C under setting [19] was 104 % of control and 100 % of control; the T/C (dose: 200.0 mg/kg/injection, schedule: Q01DX005 (ip), vehicle: Klucel (hydroxypropylcellulose) (HPC)) was 101 % of control and 92 % of control.
For the molecule `COc1nc2[nH]ccc2c(=O)[nH]1`, the T/C is 94 % of control under setting [4], 86 % of control under setting [5] and 96 % of control under setting [6].
In the case of `Cc1c(N=Nc2ccc(Br)cc2)c(-c2ccccc2)nn1C(N)=S`, the T/C was 102 % of control under setting [18] and 105 % of control under setting [19].
For the molecule `CNC(=O)Sc1ccc(C)c(N(C)C)c1`, the T/C runs as follows: under setting [20], 111 % of control and 117 % of control; under setting [21], 120 % of control.
On to `Nc1nc(N)c2[nH]cnc2n1`, for which the T/C is, setting by setting: (dose: 6.25 mg/kg/injection, schedule: Q01DX009 (ip), vehicle: other) 111 % of control; under setting [7], 100 % of control; under setting [8], 104 % of control; (dose: 50.0 mg/kg/injection, schedule: Q01DX009 (ip), vehicle: other) 95 % of control; under setting [1], 90 % of control; (dose: 50.0 mg/kg/injection, schedule: Q04DX003 (ip), vehicle: saline with Tween-80) 108 % of control. For the same molecule, the T/C by setting is: (dose: 100.0 mg/kg/injection, schedule: Q01DX009 (ip), vehicle: other) 106 % of control; under setting [2], 90 % of control; (dose: 100.0 mg/kg/injection, schedule: Q04DX003 (ip), vehicle: saline with Tween-80) 108 % of control; under setting [3], 100 % of control; (dose: 200.0 mg/kg/injection, schedule: Q04DX003 (ip), vehicle: saline with Tween-80) 108 % of control; under setting [11], 90 % of control. Moreover, the T/C (dose: 400.0 mg/kg/injection, schedule: Q04DX003 (ip), vehicle: saline with Tween-80) was 91 % of control.
For the molecule `O=S(=O)(Cc1ccccc1)CS(=O)(=O)Cc1ccccc1`, the T/C runs as follows: under setting [12], 104 % of control; under setting [13], 106 % of control; under setting [14], 103 % of control; (dose: 400.0 mg/kg/injection, schedule: Q01DX009 (ip), vehicle: Klucel (hydroxypropylcellulose) (HPC)) 101 % of control.
For the molecule `CCOC(=O)c1c[nH]c2c(=O)c3cc(C)ccc3sc2c1=O`, the T/C reads like this: (dose: 50.0 mg/kg/injection, schedule: Q01DX001 (ip), vehicle: saline with Tween-80) 95 % of control; under setting [9], 93 % of control; under setting [10], 87 % of control.
Regarding `O=C1C2=C(/C=C/c3ccccc3)OCCC2=NN1c1ccccc1`, the T/C is 94 % of control under setting [15], 98 % of control under setting [16] and 109 % of control under setting [17].
As to `Clc1c(Cl)c(Cl)c(C[n+]2ccccc2)c(Cl)c1Cl`, the T/C was 105 % of control (dose: 6.25 mg/kg/injection, schedule: Q01DX009 (ip), vehicle: saline); 98 % of control (dose: 12.5 mg/kg/injection, schedule: Q01DX009 (ip), vehicle: saline); 102 % of control (dose: 25.0 mg/kg/injection, schedule: Q01DX009 (ip), vehicle: saline); 99 % of control (dose: 50.0 mg/kg/injection, schedule: Q01DX009 (ip), vehicle: saline).
Turning to `CCC1(O)CC(OC2CC(N(C)C)C(OC3CC(O)C(OC4CCC(=O)C(C)O4)C(C)O3)C(C)O2)c2c(cc3c(c2O)C(=O)c2c(O)ccc(O)c2C3=O)C1C(=O)OC` (stereo not drawn), the T/C reads like this: (dose: 0.78 mg/kg/injection, schedule: Q01DX009 (ip), vehicle: saline with Tween-80) 178 % of control; (dose: 1:4.0 dilution, schedule: Q01DX009 (ip), vehicle: saline) 241 % of control; (dose: 1:8.0 dilution, schedule: Q01DX009 (ip), vehicle: saline) 190 % of control.
Regarding `c1ccc2c(-c3nc4ccccc4c4ccccc34)cccc2c1`, the T/C was 108 % of control under setting [20]; 108 % of control under setting [21]; 95 % of control (dose: 200.0 mg/kg/injection, schedule: Q01DX005 (ip), vehicle: saline with Tween-80).
